# Measurements reported in US20230355678A1, “METHODS FOR IMPROVING T CELL EFFICACY” (IMMATICS US, INC., priority 2022, published 2023).
# “Also recorded” adds a separate entry of the source. Read-outs that look alike come from different tables or passages of the source.
# Legend:
# transduced T cells [1] = assay: Fold expansion and manufacturing metrics of T cell products; format: cell-based; set-up: fold expansion: unit of the concentration uncertain; conditions: for fold expansion: FIG. 2B; for fold expansion of T cell products: vs untreated control
# Protocol: (§1) (DMSO low concentration=low volume=0.00001%; vehicle control for Panobinostat at low concentration (1 nM); DMSO high concentration=high volume=1.5%; vehicle control for valproic acid at high concentration (1.5 mM); all except Na butyrate (water) were dissolved in DMSO)
# (§2) On Day 1, the activated CD4/CD8-selected cells were transduced with Lentiviral vectors expressing a target-specific exogenous TCR. On Day 2, the culture media were removed and the transduced cells were fed with fresh media in the absence of Panobinostat, SAHA+IL-21, and AKTi VIII and in the presence of cytokines, for cell expansion. On Day 7-Day 10, cells were harvested and cryopreserved for harvest metrics, phenotypic analysis, and functional studies including Incucyte tumor serial killing assay, cytokine production, and exhaustion analysis. To test the effects of TKi, e.g., dasatinib, on T cell products, dasatinib was added on Day 2 (5 nM) and Day 5 (10 nM) during feeding and expansion.
# (§3) On Day 0, thawed and rested CD4/CD8-selected cells were activated in the presence of anti-CD3/anti-CD28 antibodies. On Day 1, the activated CD4/CD8-selected cells were transduced with Lentiviral vectors expressing a target-specific exogenous TCR and exogenous CD8 molecules. On Day 2, the culture media were removed and the transduced cells were fed with fresh media containing cytokines for cell expansion. Dasatinib was added on Day 2 or on Day 5. On Day 7-Day 10, cells were harvested and cryopreserved for harvest metrics, phenotypic analysis, and functional studies including Incucyte tumor serial killing assay, cytokine production, and exhaustion analysis.
# transduced T cells [2] = assay: Viability of T cell products; set-up: viability of transduced T cells: dose or concentration left out as unconfirmed; conditions: for viability of transduced T cells: Day 7, vs controls (no HDACi and DMSO), FIG. 2A
# Protocol: as §1
# transduced T cells [3] = assay: Transduction efficiency by flow cytometry gated on CD3+CD8+ TCR+ cells; format: cell-based; set-up: % CD8+ T cells / % CD8+ TCR+ cells (transduction efficiency): unit of the concentration uncertain; conditions: for % CD8+ T cells / % CD8+ TCR+ cells (transduction efficiency): FIG. 3; for % CD8+ TCR+ T cells (transduction efficiency) / total number of T cell products with CD8+ TCR+ T cells: vs untreated control
# Protocol: Transduction efficiency of transduced T cells treated with different HDACi were determined by flow cytometry gated on CD3+CD8+ TCR+ cells.
# as §2, §3
# UACC257 = assay: Tumor cell killing by T cell products (Incucyte tumor serial killing assay); format: cell-based
# From the text: as §2
# T cell products prepared by activating T cells obtained from three patients (n=3) in the presence of Panobinostat, SAHA+IL-21, or AKTi VIII were compared with regards to tumor killing activity when contacting target cells, e.g., UACC257, which express a report gene encoding red florescent protein (RFP), with E:T=3:1. TCR-positive cells were normalized.
# (n=3 healthy donors; TCR normalized T cells:UACC257-iRFP=3:1).
# transduced T cells [4] = assay: Exhaustion / inhibitory receptor (ICI) marker expression of T cell products; format: cell-based
# Protocol: The sustained expression of multiple inhibitory receptors may be the hallmark of exhausted T cells. Common to both CD4+ and CD8+ exhausted T cells may be the surface expression of multiple inhibitory receptors, e.g., 2B4, 4-1BB, CD39, CD69, LAG3, PD-1, TIGIT, and TIM3. Expression of these inhibitory receptors in T cell products prepared by Panobinostat treatment at different time was determined. […] Panobinostat treatment on Day 0 increased % PD-1+ cells in T cell products as compared with other treatments and control.
# CD39 may be considered as a marker for exhausted T cells, e.g., CD8+ T cells, in cancer. CD69 is a membrane-bound, type II C-lectin receptor and may be considered as an early marker of lymphocyte activation due to its rapid appearance on the surface of the plasma membrane after stimulation. […] Dasatinib may have little effect on % of terminally differentiated CD39-positive state (CD39+CD69+) and % of CD69+ state in T cell products.
# Common to both CD4+ and CD8+ exhausted T cells may be the surface expression of multiple inhibitory receptors including 2B4, 4-1BB, CD39, CD69, LAG3, PD-1, TIGIT, and TIM-3.
# transduced T cells [5] = assay: Response to Ag exposure (cytokine expression, exhaustion); format: cell-based; conditions: Acceptable range ≥Control; Table 5 summary grade
# From the text: as §2
# transduced T cells [6] = assay: Memory T cell phenotype by flow cytometry; format: cell-based; conditions: for Ranking of T cell products from the most Tnaive and the least TemRA to the least Tnaive and the most TemRA: comparative study, FIG. 25A-B; for CD28+CD62L+ cells (Tcm-like cells): FIG. 5; for % Tnaïve cells / TemRA cells: vs other treatments and control (no HDACi), FIG. 4
# Protocol: Phenotypes of transduced T cells treated with different HDACi were determined by flow cytometry gated on CD3+CD8+ TCR+ cells. […] No major difference in immune-checkpoint-inhibitor (ICI) marker expression was observed.
# Using Panobinostat as example, phenotypes of T cell products prepared by Panobinostat treatment on Day 0 (activation), Day 1 (transduction), or Day 2 (feeding) were determined.
# as §2, §3
# [7] = dasatinib (10 nM) on Day 2 or Day 5, vs untreated control, FIG. 23C
# [8] = dasatinib (5 nM) on Day 2 compared with dasatinib (10 nM) on Day 5, FIG. 25A
# [9] = dasatinib (10 nM) on Day 2 or Day 5, FIG. 23B
# [10] = dasatinib added Day 2 (5 nM) and Day 5 (10 nM) during feeding and expansion, vs untreated control, FIG. 25A
compound,measurement,setting,value
CCCC(=O)[O-].[Na+] [Sodium butyrate],fold expansion,transduced T cells [1]; 2 (unit uncertain),reduced fold expansion
same,viability of transduced T cells,transduced T cells [2],reduced T cell viability
same,toxicity to T cells,transduced T cells [2]; summary of Example 2,highly toxic
same,% CD8+ T cells,transduced T cells [3]; 2 (unit uncertain),reduced % CD8+ T cells
same,% CD8+ TCR+ cells (transduction efficiency),transduced T cells [3]; 2 (unit uncertain),reduced % CD8+ TCR+ cells
"3-[1-[[4-(7-phenyl-3H-imidazo[4, 5g]quinoxalin-6-yl)phenyl]methyl]piperidin-4-yl]-1H-benzimidazol-2-one [AKTi VIII]",fold expansion of T cell products,"transduced T cells [1]; AKTi VIII 250 nM added Day 0 during activation, FIG. 19A, 24A",little effect
same,manufacturing metrics and phenotype,transduced T cells [1]; AKTi-treated cells compared with Panobinostat and SAHA+IL-21 treated cells,relatively better
same,tumor killing activity,"UACC257; AKTi VIII 250 nM added Day 0 during activation, UACC257-RFP, E:T=3:1, n=3 patients, vs Panobinostat and controls, FIG. 21A",better tumor killing activity
same,tumor killing activity,"UACC257; AKTi VIII 250 nM added Day 0 during activation, UACC257-RFP, E:T=3:1, n=3 patients, vs Panobinostat and controls, FIG. 21A, listed as AKTi",better tumor-killing activity
same,% CD8+ TCR+ T cells (transduction efficiency),"transduced T cells [3]; AKTi VIII 250 nM added Day 0 during activation, FIG. 19B, 24B",higher
same,Exhaustion phenotype,"transduced T cells [4]; Acceptable range ≤% of exhausted cells to control, Table 5 summary grade",=
same,"Response to Ag exposure (cytokine expression, exhaustion)",transduced T cells [5],+/=
same,"% of Tcm (CD45RA−CCR7+), Teff (CD45−CCD7−), and TemRA (CD45RA+CCR7-)","transduced T cells [6]; AKTi VIII 250 nM added Day 0 during activation, FIG. 20A",little effect
same,total number of Tnaive (CD45RA+CCR7+) in T cell products,"transduced T cells [6]; AKTi VIII 250 nM added Day 0 during activation, vs Panobinostat, SAHA+IL-21 and untreated control, FIG. 20B, 25B",best total number; also recorded: increased
same,% Tnaive (CD45RA+CCR7+) in T cell products,"transduced T cells [6]; AKTi VIII 250 nM added Day 0 during activation, vs untreated control, FIG. 20A, 25A",increased
same,"expression of Tnaive and Tcm markers (CD27, CD28, CD62L)","transduced T cells [6]; AKTi VIII 250 nM added Day 0 during activation, vs untreated control, FIG. 20C",little effect
same,% TemRA in T cell products,"transduced T cells [6]; AKTi VIII 250 nM added Day 0 during activation, vs untreated control, FIG. 25A",decreased
same,Memory Phenotype,"transduced T cells [6]; Acceptable range: Higher % of Tscm, Tcm, lower % of TemRA, improvements in other memory markers (CD62L, CD28, CD27), Table 5 summary grade",+/=
same,Ranking of T cell products from the most Tnaive and the least TemRA to the least Tnaive and the most TemRA,transduced T cells [6],dasatinib (5 nM) on Day 2 >dasatinib (10 nM) on Day 5 >AKTi VIII >Panobinostat
"O=C(CCCCCCC(=O)Nc1ccccc1)NO [SAHA, suberanilohydroxamic acid]",CD28+CD62L+ cells (Tcm-like cells),transduced T cells [6]; 50 nM,more CD28+CD62L+ cells; also recorded: increased
same,% Tnaïve cells,transduced T cells [6]; 50 nM,most % Tnaïve cells; also recorded: most naïve cells
same,TemRA cells,transduced T cells [6]; 50 nM,least TemRA cells
O=C(CCCCCCNC(=O)c1cnc(N(c2ccccc2)c2ccccc2Cl)nc1)NO [ACY-241],CD28+CD62L+ cells (Tcm-like cells),transduced T cells [6]; 100 nM,more CD28+CD62L+ cells; also recorded: increased
same,% Tnaïve cells,transduced T cells [6]; 100 nM,most % Tnaïve cells; also recorded: most naïve cells
same,TemRA cells,transduced T cells [6]; 100 nM,least TemRA cells
"Cc1nc(Nc2ncc(C(=O)Nc3c(C)cccc3Cl)s2)cc(N2CCN(CCO)CC2)n1 [Dasatinib, dasatinib]","Manufacturing metrics (expansion, viability, yield)","transduced T cells [1]; Acceptable range ≥Control, Table 5 summary grade",=
same,fold expansion of T cell products,"transduced T cells [1]; dasatinib added Day 2 (5 nM) and Day 5 (10 nM) during feeding and expansion, FIG. 24A",little effect
same,fold expansion of T cell products,"transduced T cells [1]; dasatinib on Day 2 (10 nM or 100 nM) or Day 5 (10 nM or 100 nM), FIG. 22A",little effect
same,tumor killing activity,"UACC257; expansion in the presence of dasatinib, TCR normalized T cells:UACC257-RFP=3:1, n=3 healthy donors, vs Panobinostat or AKTi VIII and controls, FIG. 28A, 29A-C",significantly better tumor killing activity
same,% CD8+ TCR+ T cells (transduction efficiency),"transduced T cells [3]; dasatinib added Day 2 (5 nM) and Day 5 (10 nM) during feeding and expansion, FIG. 24B",higher
same,total number of T cell products with CD8+ TCR+ T cells,"transduced T cells [3]; dasatinib added Day 2 (5 nM) and Day 5 (10 nM) during feeding and expansion, FIG. 24C",little effect
same,% CD8+ TCR+ T cells (transduction efficiency),"transduced T cells [3]; dasatinib on Day 2 (10 nM or 100 nM) or Day 5 (10 nM or 100 nM), FIG. 22B",higher
same,total number of T cell products with CD8+ TCR+ T cells,"transduced T cells [3]; expansion in the presence of dasatinib, FIG. 22C",little effect
same,"% 2B4+, % Cd69+, and % TIM-3+ cells in T cell products","transduced T cells [4]; dasatinib (10 nM) on Day 2 or Day 5, vs Panobinostat or AKTi VIII or untreated control, FIG. 27A",decreased
same,MFI of 4-1BB and TIM-3 in T cell products,"transduced T cells [4]; dasatinib (10 nM) on Day 2 or Day 5, vs Panobinostat or AKTi VIII or untreated control, FIG. 27B",decreased
same,% of T cell products with differentiated CD39+ state (CD39+),transduced T cells [4]; [7],slightly higher
same,% of T cell products with memory-progenitor CD39− negative stem-like phenotype (CD39−CD69−),transduced T cells [4]; [7],slightly less
same,% of terminally differentiated CD39-positive state (CD39+CD69+) and % of CD69+ state,"transduced T cells [4]; dasatinib, FIG. 23C",little effect
same,phenotype,transduced T cells [6]; Dasatinib-treated cells vs untreated cells,Better Phenotype
same,Ranking of T cell products from the most Tnaive and the least TemRA to the least Tnaive and the most TemRA,transduced T cells [6],dasatinib (5 nM) on Day 2 >dasatinib (10 nM) on Day 5 >AKTi VIII >Panobinostat
same,% TemRA in T cell products,transduced T cells [6]; [8],less
same,% Tnaive in T cell products,transduced T cells [6]; [8],more
same,expression of CD27,"transduced T cells [6]; dasatinib (10 nM) on Day 2 or Day 5, FIG. 23A",Little effect
same,% Tnaive in T cell products,transduced T cells [6]; [9],less
same,% of differentiated TemRA,transduced T cells [6]; [9],less
same,% CD62L+ and % CD28+CD62L+ cells in T cell products,"transduced T cells [6]; dasatinib (10 nM) on Day 2 or Day 5, vs Panobinostat, SAHA+IL-21, AKTi VIII or untreated control, FIG. 26A",increased
same,MFI of CD27 and CD62L in T cell products,"transduced T cells [6]; dasatinib (10 nM) on Day 2 or Day 5, vs Panobinostat, SAHA+IL-21, AKTi VIII or untreated control, FIG. 26B",increased
same,expression of Tnaive and Tcm markers CD28 and CD62L,"transduced T cells [6]; dasatinib (10 nM) on Day 2 or Day 5, vs untreated control, FIG. 23A",increased
same,% TemRA in T cell products,transduced T cells [6]; [10],decreased
same,% Tnaive in T cell products,transduced T cells [6]; [10],increased
same,number of Tnaive in T cell products,"transduced T cells [6]; dasatinib added Day 2 (5 nM) and Day 5 (10 nM) during feeding and expansion, vs untreated control, FIG. 25B",increased
CCCC(CCC)C(=O)O [valproic acid],fold expansion,transduced T cells [1]; 1.5 (unit uncertain),reduced fold expansion
same,toxicity to T cells,transduced T cells [2],highly toxic
same,% CD8+ T cells,transduced T cells [3]; 1.5 (unit uncertain),reduced % CD8+ T cells
"Nc1ccccc1NC(=O)c1ccc(CNC(=O)OCc2cccnc2)cc1 [Entinostat, entinostat]",fold expansion,transduced T cells [1]; 2 (unit uncertain),reduced fold expansion
same,toxicity to T cells,transduced T cells [2],highly toxic
same,viability of transduced T cells,transduced T cells [2],reduced T cell viability
same,% CD8+ T cells,transduced T cells [3]; 2 (unit uncertain),reduced % CD8+ T cells
same,% CD8+ TCR+ cells (transduction efficiency),transduced T cells [3]; 2 (unit uncertain),reduced % CD8+ TCR+ cells
